Assays:
HEL [1] = assay: Induction of apoptosis in HEL cells assessed as necrotic cells at 0.4 uM incubated for 48 hrs by Annexin V/PI staining based flow cytometry (reference value: 0.92 %); assay type: functional, Homo sapiens
HEL [2] = assay: Induction of apoptosis in HEL cells assessed as early apoptotic cells at 0.2 uM incubated for 24 hrs by Annexin V/PI staining based flow cytometry (reference value: 1.47 %); assay type: functional, Homo sapiens
HEL [3] = assay: Induction of apoptosis in HEL cells assessed as late apoptotic cells at 0.2 uM incubated for 24 hrs by Annexin V/PI staining based flow cytometry (reference value: 1.98 %); assay type: functional, Homo sapiens
HEL [4] = assay: Induction of apoptosis in HEL cells assessed as necrotic cells at 0.2 uM incubated for 48 hrs by Annexin V/PI staining based flow cytometry (reference value: 0.92 %); assay type: functional, Homo sapiens
HEL [5] = assay: Induction of apoptosis in HEL cells assessed as late apoptotic cells at 0.4 uM incubated for 48 hrs by Annexin V/PI staining based flow cytometry (reference value: 1.83 %); assay type: functional, Homo sapiens
HEL [6] = assay: Induction of apoptosis in HEL cells assessed as late apoptotic cells at 0.2 uM incubated for 48 hrs by Annexin V/PI staining based flow cytometry (reference value: 1.83 %); assay type: functional, Homo sapiens
HEL [7] = assay: Induction of cell cycle arrest in HEL cells assessed as cell accumulation at G2/M phase at 0.1 uM incubated for 48 hrs by […] (reference value: 20.36 %); assay type: functional, Homo sapiens
HEL [8] = assay: Induction of apoptosis in HEL cells assessed as late apoptotic cells at 0.4 uM incubated for 24 hrs by Annexin V/PI staining based flow cytometry (reference value: 1.98 %); assay type: functional, Homo sapiens
HEL [9] = assay: Induction of cell cycle arrest in HEL cells assessed as cell accumulation at G1 phase at 0.2 uM incubated for 24 hrs by Western blot analysis (reference value: 39.11 %); assay type: functional, Homo sapiens
HEL [10] = assay: Induction of cell cycle arrest in HEL cells assessed as cell accumulation at S phase at 0.4 uM incubated for 48 hrs by […] (reference value: 33.66 %); assay type: functional, Homo sapiens
HEL [11] = assay: Induction of cell cycle arrest in HEL cells assessed as cell accumulation at S phase at 0.4 uM incubated for 24 hrs by […] (reference value: 16.18 %); assay type: functional, Homo sapiens
HEL [12] = assay: Induction of cell cycle arrest in HEL cells assessed as cell accumulation at S phase at 0.2 uM incubated for 24 hrs by […] (reference value: 16.18 %); assay type: functional, Homo sapiens
HEL [13] = assay: Induction of apoptosis in HEL cells assessed as viable cells at 0.4 uM incubated for 24 hrs by Annexin V/PI staining based flow cytometry (reference value: 94.94 %); assay type: functional; settings: Homo sapiens, read-out: Activity
HEL [14] = assay: Induction of cell cycle arrest in HEL cells assessed as cell accumulation at G2/M phase at 0.2 uM incubated for 48 hrs by […] (reference value: 20.36 %); assay type: functional, Homo sapiens
HEL [15] = assay: Induction of cell cycle arrest in HEL cells assessed as cell accumulation at G2/M phase at 0.2 uM incubated for 24 hrs by […] (reference value: 16.18 %); assay type: functional, Homo sapiens
HEL [16] = assay: Induction of apoptosis in HEL cells assessed as early apoptotic cells at 0.4 uM incubated for 24 hrs by Annexin V/PI staining based flow cytometry (reference value: 1.47 %); assay type: functional, Homo sapiens
HEL [17] = assay: Induction of cell cycle arrest in HEL cells assessed as cell accumulation at G2/M phase at 0.4 uM incubated for 48 hrs by […] (reference value: 20.36 %); assay type: functional, Homo sapiens
HEL [18] = assay: Induction of cell cycle arrest in HEL cells assessed as cell accumulation at G1 phase at 0.1 uM incubated for 24 hrs by […] (reference value: 39.11 %); assay type: functional, Homo sapiens
HEL [19] = assay: Induction of cell cycle arrest in HEL cells assessed as cell accumulation at S phase at 0.1 uM incubated for 48 hrs by […] (reference value: 33.66 %); assay type: functional, Homo sapiens
HEL [20] = assay: Induction of cell cycle arrest in HEL cells assessed as cell accumulation at G1 phase at 0.4 uM incubated for 48 hrs by […] (reference value: 54.17 %); assay type: functional, Homo sapiens
HEL [21] = assay: Induction of cell cycle arrest in HEL cells assessed as cell accumulation at S phase at 0.1 uM incubated for 24 hrs by […] (reference value: 16.18 %); assay type: functional, Homo sapiens
HEL [22] = assay: Induction of apoptosis in HEL cells assessed as late apoptotic cells at 0.1 uM incubated for 24 hrs by Annexin V/PI staining based flow cytometry (reference value: 1.98 %); assay type: functional, Homo sapiens
HEL [23] = assay: Induction of apoptosis in HEL cells assessed as viable cells at 0.4 uM incubated for 48 hrs by Annexin V/PI staining based flow cytometry (reference value: 95.63 %); assay type: functional; settings: Homo sapiens, read-out: Activity
SW480 = assay: Cytotoxicity against human SW480 cells assessed as cell growth inhibition incubated for 72 hrs by MTT assay; assay type: functional, cell-based; settings: sw480
HEL [24] = assay: Induction of apoptosis in HEL cells assessed as viable cells at 0.2 uM incubated for 48 hrs by Annexin V/PI staining based flow cytometry (reference value: 95.63 %); assay type: functional; settings: Homo sapiens, read-out: Activity
HEL [25] = assay: Induction of apoptosis in HEL cells assessed as viable cells at 0.1 uM incubated for 48 hrs by Annexin V/PI staining based flow cytometry (reference value: 95.63 %); assay type: functional; settings: Homo sapiens, read-out: Activity
HEL [26] = assay: Induction of cell cycle arrest in HEL cells assessed as cell accumulation at G2/M phase at 0.1 uM incubated for 24 hrs by […] (reference value: 16.18 %); assay type: functional, Homo sapiens
HEL [27] = assay: Induction of cell cycle arrest in HEL cells assessed as cell accumulation at G1 phase at 0.4 uM incubated for 24 hrs by […] (reference value: 39.11 %); assay type: functional, Homo sapiens
HEL [28] = assay: Induction of apoptosis in HEL cells assessed as early apoptotic cells at 0.1 uM incubated for 48 hrs by Annexin V/PI staining based flow cytometry (reference value: 1.62 %); assay type: functional, Homo sapiens
HEL [29] = assay: Induction of apoptosis in HEL cells assessed as viable cells at 0.1 uM incubated for 24 hrs by Annexin V/PI staining based flow cytometry (reference value: 94.94 %); assay type: functional; settings: Homo sapiens, read-out: Activity
HEL [30] = assay: Induction of cell cycle arrest in HEL cells assessed as cell accumulation at G1 phase at 0.1 uM incubated for 48 hrs by […] (reference value: 54.17 %); assay type: functional, Homo sapiens
HEL [31] = assay: Cytotoxicity against HEL cells assessed as cell growth inhibition incubated for 72 hrs by MTT assay; assay type: functional, cell-based, Homo sapiens; settings: hel
[32] = Solubility of compound in PBS at pH 7.4 at 1.7 mg measured for 24 hrs by HPLC-UV analysis; assay type: physicochemical
HEL [33] = assay: Induction of apoptosis in HEL cells assessed as viable cells at 0.2 uM incubated for 24 hrs by Annexin V/PI staining based flow cytometry (reference value: 94.94 %); assay type: functional; settings: Homo sapiens, read-out: Activity
HEL [34] = assay: Induction of apoptosis in HEL cells assessed as early apoptotic cells at 0.4 uM incubated for 48 hrs by Annexin V/PI staining based flow cytometry (reference value: 1.62 %); assay type: functional, Homo sapiens
HEL [35] = assay: Induction of cell cycle arrest in HEL cells assessed as cell accumulation at G2/M phase at 0.4 uM incubated for 24 hrs by […] (reference value: 16.18 %); assay type: functional, Homo sapiens
HEL [36] = assay: Induction of apoptosis in HEL cells assessed as necrotic cells at 0.1 uM incubated for 24 hrs by Annexin V/PI staining based flow cytometry (reference value: 1.61 %); assay type: functional, Homo sapiens
HEL [37] = assay: Induction of apoptosis in HEL cells assessed as necrotic cells at 0.1 uM incubated for 48 hrs by Annexin V/PI staining based flow cytometry (reference value: 0.92 %); assay type: functional, Homo sapiens
HEL [38] = assay: Induction of apoptosis in HEL cells assessed as necrotic cells at 0.2 uM incubated for 24 hrs by Annexin V/PI staining based flow cytometry (reference value: 1.61 %); assay type: functional, Homo sapiens
HEL [39] = assay: Induction of apoptosis in HEL cells assessed as late apoptotic cells at 0.1 uM incubated for 48 hrs by Annexin V/PI staining based flow cytometry (reference value: 1.83 %); assay type: functional, Homo sapiens
HEL [40] = assay: Induction of cell cycle arrest in HEL cells assessed as cell accumulation at G1 phase at 0.2 uM incubated for 48 hrs by […] (reference value: 54.17 %); assay type: functional, Homo sapiens
HEL [41] = assay: Induction of apoptosis in HEL cells assessed as early apoptotic cells at 0.1 uM incubated for 24 hrs by Annexin V/PI staining based flow cytometry (reference value: 1.47 %); assay type: functional, Homo sapiens
HEL [42] = assay: Induction of cell cycle arrest in HEL cells assessed as cell accumulation at S phase at 0.2 uM incubated for 48 hrs by […] (reference value: 33.66 %); assay type: functional, Homo sapiens
HEL [43] = assay: Induction of apoptosis in HEL cells assessed as early apoptotic cells at 0.2 uM incubated for 48 hrs by Annexin V/PI staining based flow cytometry (reference value: 1.62 %); assay type: functional, Homo sapiens
HEL [44] = assay: Induction of apoptosis in HEL cells assessed as necrotic cells at 0.4 uM incubated for 24 hrs by Annexin V/PI staining based flow cytometry (reference value: 1.61 %); assay type: functional, Homo sapiens

Description for MDA-MB-231: Cytotoxicity against human MDA-MB-231 cells assessed as cell growth inhibition incubated for 72 hrs by MTT assay

COc1cc(OC)c2c(c1)O[C@@]1(c3ccc(OCCCCCN4CCN(C)CC4)cc3)[C@H](c3ccccc3)C[C@@H](O)[C@@]21O.O=C(O)/C=C/C(=O)O (racemic; form 2)
Activity (HEL [1]): 2.21%
Activity (HEL [2]): 1.5%
Activity (HEL [3]): 1.66%
Activity (HEL [4]): 3.11%
Activity (HEL [5]): 10.08%
Activity (HEL [6]): 7.65%
Activity (HEL [7]): 25.52%
Activity (HEL [8]): 2.1%
Activity (HEL [9]): 50.73%
Activity (HEL [10]): 19.87%
Activity (HEL [11]): 27.85%
Activity (HEL [12]): 27.85%
viability at 0.4 µM (HEL [13]): 94.6%
Activity (HEL [14]): 15.61%
Activity (HEL [15]): 20.55%
Activity (HEL [16]): 2.17%
Activity (HEL [17]): 8.35%
Activity (HEL [18]): 39.54%
Activity (HEL [19]): 30.25%
Activity (HEL [20]): 66.15%
Activity (HEL [21]): 39.19%
Activity (HEL [22]): 2.02%
viability at 0.4 µM (HEL [23]): 68.9%
IC50 (SW480): > 1 µM
viability at 0.2 µM (HEL [24]): 82.9%
viability at 0.1 µM (HEL [25]): 92%
Activity (HEL [26]): 21.09%
Activity (HEL [27]): 54.17%
Activity (HEL [28]): 3.45%
viability at 0.1 µM (HEL [29]): 94.7%
Activity (HEL [30]): 43.16%
IC50 (HEL [31]): 0.19 µM
solubility at 24 h [32]: 12.5 mg/mL
viability at 0.2 µM (HEL [33]): 95.2%
Activity (HEL [34]): 18.85%
Activity (HEL [35]): 18.31%
Activity (HEL [36]): 1.96%
Activity (HEL [37]): 1.02%
Activity (HEL [38]): 1.68%
IC50 (MDA-MB-231): > 1 µM
Activity (HEL [39]): 3.54%
Activity (HEL [40]): 62.59%
Activity (HEL [41]): 1.34%
Activity (HEL [42]): 19.87%
Activity (HEL [43]): 6.37%
Activity (HEL [44]): 1.12%

Source: ChEMBL document CHEMBL5357031, “Design and Synthesis of Cytotoxic Water-Soluble Rocaglaol Derivatives against HEL Cells by Inhibiting Fli-1” (J Nat Prod, 2024)
